Counter-ions that a name gives are not always drawn. Like-named read-outs stand apart in the source and are kept apart here.

Common to all, as to assay type: cell-based
Assay [1] has as its target T1, human norepinephrine transporter (Homo sapiens, UniProt P23975).
T1 construct: expressed in transfected cells
Briefly: Inhibitory action on human norepinephrine transporter ([3H]-norepinephrine uptake in CHO cells). As to conditions: relative to inhibitory activity of 10 μM DMI as 100%; for inhibition at 1 µM: CHO. The method in brief: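 Stably transfected CHO-K1 cells plated overnight, then given test compound and [3H]-norepinephrine (20 nM final, from 200 nM) in HEPES-buffered saline with 0.5% BSA for 45 min. After PBS washes, retained radioactivity counted by scintillation. Inhibition at 10 μM or 1 μM compound expressed relative to 10 μM DMI as 100%.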

In assay [2] the target is T2, human serotonin transporter (Homo sapiens, UniProt P31645).
T2 construct: expressed in transfected cells
Briefly: Inhibitory action on human serotonin transporter ([3H]-5-hydroxytryptamine uptake in CHO cells). The settings on record: compound 1 μM, relative to inhibitory activity of 10 μM Paroxetine as 100%; for inhibition at 1 µM: CHO, read-out: inhibitory rate (%). Put shortly:
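CHO-K1 cells stably expressing human SERT, plated overnight, took up [3H]-5-HT (diluted to 200 nM before a 1:10 addition) for 20 min in HEPES-buffered saline with glucose and 0.5% BSA; radioactivity counted by scintillation. Compounds at 10 μM or 1 μM, activity expressed relative to 10 μM paroxetine set as 100%.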

Assay [3] has as its target T3, human dopamine transporter (Homo sapiens, UniProt Q01959).
T3 construct: expressed in transfected cells
Put plainly: Inhibitory action on human dopamine transporter ([3H]-dopamine uptake in CHO cells). The settings on record: compound 1 μM, relative to inhibitory activity of 100 μM Nomifensine as 100%; for inhibition at 1 µM: CHO, read-out: inhibitory rate (%). The method in brief:
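CHO-K1 cells stably expressing human dopamine transporter, exposed to compound at 10 μM or 1 μM in HEPES-buffered saline with 0.5% BSA. [3H]-dopamine uptake measured over 60 min by scintillation counting. Activity expressed relative to 100 μM nomifensine as 100%.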

Setting [4] is: compound 1 μM, read-out: inhibitory rate (%).
[5] abbreviates: read-out: inhibitory rate (%), compound 1 μM.

T2 sequence (P31645 whole entry): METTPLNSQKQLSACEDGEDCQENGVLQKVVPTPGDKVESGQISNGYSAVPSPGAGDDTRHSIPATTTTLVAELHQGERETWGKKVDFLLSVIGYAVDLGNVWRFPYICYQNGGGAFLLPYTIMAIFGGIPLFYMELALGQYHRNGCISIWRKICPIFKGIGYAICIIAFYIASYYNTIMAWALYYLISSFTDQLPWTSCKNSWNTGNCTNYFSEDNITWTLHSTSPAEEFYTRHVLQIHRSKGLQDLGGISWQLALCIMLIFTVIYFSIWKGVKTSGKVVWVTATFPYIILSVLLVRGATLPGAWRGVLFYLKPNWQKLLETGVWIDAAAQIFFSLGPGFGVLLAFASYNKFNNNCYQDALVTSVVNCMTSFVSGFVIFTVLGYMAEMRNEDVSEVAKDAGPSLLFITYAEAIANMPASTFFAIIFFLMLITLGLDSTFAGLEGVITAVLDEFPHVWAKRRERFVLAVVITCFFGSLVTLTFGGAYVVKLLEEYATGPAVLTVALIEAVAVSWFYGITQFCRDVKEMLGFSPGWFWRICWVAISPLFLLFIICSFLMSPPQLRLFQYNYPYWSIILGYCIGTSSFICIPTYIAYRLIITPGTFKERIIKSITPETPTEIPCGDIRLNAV
T3 sequence (Q01959 whole entry): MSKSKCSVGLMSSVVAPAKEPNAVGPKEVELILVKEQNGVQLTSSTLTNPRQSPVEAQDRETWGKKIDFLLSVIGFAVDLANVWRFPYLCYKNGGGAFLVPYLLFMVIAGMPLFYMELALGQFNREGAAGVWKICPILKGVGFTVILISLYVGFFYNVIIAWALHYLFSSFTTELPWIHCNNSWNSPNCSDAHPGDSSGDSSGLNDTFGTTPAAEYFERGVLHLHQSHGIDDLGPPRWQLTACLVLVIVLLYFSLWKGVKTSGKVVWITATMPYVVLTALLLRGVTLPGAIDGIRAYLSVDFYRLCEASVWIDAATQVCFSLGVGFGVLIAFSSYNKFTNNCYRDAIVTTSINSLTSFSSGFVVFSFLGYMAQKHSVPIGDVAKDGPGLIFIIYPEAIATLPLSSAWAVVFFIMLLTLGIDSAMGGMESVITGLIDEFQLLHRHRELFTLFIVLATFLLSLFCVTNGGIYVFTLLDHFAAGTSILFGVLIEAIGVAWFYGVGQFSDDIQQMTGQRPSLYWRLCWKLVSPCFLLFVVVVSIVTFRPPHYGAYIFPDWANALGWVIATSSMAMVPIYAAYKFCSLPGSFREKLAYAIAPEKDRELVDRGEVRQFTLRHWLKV
T1 sequence (P23975 whole entry): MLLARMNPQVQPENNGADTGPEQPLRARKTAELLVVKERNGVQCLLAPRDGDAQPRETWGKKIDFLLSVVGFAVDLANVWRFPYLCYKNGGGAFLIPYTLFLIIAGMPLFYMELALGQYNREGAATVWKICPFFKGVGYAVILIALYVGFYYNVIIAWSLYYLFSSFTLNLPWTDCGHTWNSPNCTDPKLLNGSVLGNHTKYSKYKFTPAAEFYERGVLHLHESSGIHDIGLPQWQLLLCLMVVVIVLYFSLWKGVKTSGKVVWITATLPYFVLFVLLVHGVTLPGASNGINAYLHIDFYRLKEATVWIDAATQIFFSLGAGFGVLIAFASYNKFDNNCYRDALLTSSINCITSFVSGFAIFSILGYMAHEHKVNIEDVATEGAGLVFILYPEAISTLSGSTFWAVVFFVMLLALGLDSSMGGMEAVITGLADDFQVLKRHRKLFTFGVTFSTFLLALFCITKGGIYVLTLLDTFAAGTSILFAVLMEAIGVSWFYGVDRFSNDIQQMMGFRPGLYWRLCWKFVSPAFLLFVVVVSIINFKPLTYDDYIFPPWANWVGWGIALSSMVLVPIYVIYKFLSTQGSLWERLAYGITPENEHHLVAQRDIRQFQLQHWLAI

For the compound `Cc1cc(C(=O)O)nn1C[C@@H]1CNCCO[C@H]1c1ccc(Cl)c(Cl)c1` [Example 187, 1-{[(6S,7R)-7-(3,4-dichlorophenyl)-1,4-oxazepan-6-yl]methyl}-5-methyl-1H-pyrazole-3-carboxylic acid monohydrochloride], the figures for the inhibition at 1 µM in assay [1] (setting [4]), in assay [2] and in assay [3] were 101%, 86% and 53%, respectively.

As for `O=c1[nH]c(-c2csc(C[C@@H]3CNCCO[C@H]3c3ccc(Cl)c(Cl)c3)n2)no1` [Example 199, 3-(2-{[(6R,7R)-7-(3,4-dichlorophenyl)-1,4-oxazepan-6-yl]methyl}-1,3-thiazol-4-yl)-1,2,4-oxadiazol-5(4H)-one monohydrochloride], the inhibition at 1 µM in assay [1] (setting [4]) was 99%; in assay [2], 100%; in assay [3] it was 66%.

For `O=c1[nH]c(-c2ccnn(C[C@@H]3CNCCO[C@H]3c3ccc(Cl)c(Cl)c3)c2=O)no1` [Example 209, 2-{[(6S,7R)-7-(3,4-dichlorophenyl)-1,4-oxazepan-6-yl]methyl}-4-(5-oxo-4,5-dihydro-1,2,4-oxadiazol-3-yl)pyridazin-3(2H)-one monohydrochloride], the inhibition at 1 µM came out at 101% in assay [1] (setting [5]), 97% in assay [2] and 71% in assay [3].

Regarding `OCCC[C@@H]1CNCCO[C@H]1c1ccc(Cl)c(Cl)c1` [Example 212, 3-[(6R,7R)-7-(3,4-dichlorophenyl)-1,4-oxazepan-6-yl]propan-1-ol monohydrochloride], the inhibition at 1 µM was found to be 103% in assay [1] (setting [4]), 98% in assay [2] and 94% in assay [3].

On to `CC(=O)[C@@H]1CNCCO[C@H]1c1ccc(Cl)c(Cl)c1` [Example 216, 1-[(6R,7R)-7-(3,4-dichlorophenyl)-1,4-oxazepan-6-yl]ethanone monohydrochloride], for which the inhibition at 1 µM in assay [1] (setting [4]) was 94%; in assay [2], 42%; in assay [3] it was 3%.

For the compound `CC(=O)N[C@H]1CNCCO[C@@H]1c1ccc(Cl)c(Cl)c1` [Example 240, N-[(6S,7R)-7-(3,4-dichlorophenyl)-1,4-oxazepan-6-yl]acetamide monohydrochloride], the inhibition at 1 µM stood at 105% in assay [1] (setting [4]), 94% in assay [2] and 60% in assay [3].

Regarding `NC(=O)N[C@@H]1CNCCO[C@H]1c1ccc(Cl)c(Cl)c1` [Example 262, 1-[(6R,7S)-7-(3,4-dichlorophenyl)-1,4-oxazepan-6-yl]urea monohydrochloride], the inhibition at 1 µM in assay [1] (setting [4]) came out at 98%; in assay [2] it was 71%; in assay [3] it was 52%.

Regarding `CS(=O)(=O)N[C@@H]1CNCCO[C@H]1c1ccc(Cl)c(Cl)c1` [Example 265, N-[(6R,7S)-7-(3,4-dichlorophenyl)-1,4-oxazepan-6-yl]methanesulfonamide monohydrochloride], the figures for the inhibition at 1 µM in assay [1] (setting [4]), in assay [2] and in assay [3] were 102%, 79% and 72%, respectively.

Take `CS(=O)(=O)N[C@H]1CNCCO[C@@H]1c1ccc(Cl)c(Cl)c1` [Example 266, N-[(6S,7R)-7-(3,4-dichlorophenyl)-1,4-oxazepan-yl]methanesulfonamide monohydrochloride]: the inhibition at 1 µM in assay [1] (setting [4]) stood at 103%; in assay [2] it was 82%; in assay [3], 76%.

With `O=C1CN([C@@H]2CNCCO[C@H]2c2ccc(Cl)c(Cl)c2)C(=O)N1` [Example 276, 1-[(6R,7S)-7-(3,4-dichlorophenyl)-1,4-oxazepan-6-yl]imidazolidine-2,4-dione monohydrochloride], the inhibition at 1 µM in assay [1] (setting [4]) came to 103%; in assay [2], 87%; in assay [3], 94%.

As to `OC[C@@H]1CNCCO[C@H]1c1ccc(F)c(Cl)c1` [Example 284, [(6S,7R)-7-(3-chloro-4-fluorophenyl)-1,4-oxazepan-6-yl]methanol monofumarate], the figures for the inhibition at 1 µM in assay [1] (setting [5]), in assay [2] and in assay [3] were 96%, 34% and 11%, respectively.

As to `OC[C@H]1CNCCO[C@@H]1c1ccc(F)c(Cl)c1` [Example 285, [(6R,7S)-7-(3-chloro-4-fluorophenyl)-1,4-oxazepan-6-yl]methanol 0.5 fumarate], the inhibition at 1 µM is 94% in assay [1] (setting [4]), 79% in assay [2] and 19% in assay [3].

Turning to `OC[C@@H]1CNCCO[C@H]1c1ccc(Cl)c(F)c1` [Example 301, [(6S,7R)-7-(4-chloro-3-fluorophenyl)-1,4-oxazepan-6-yl]methanol monohydrochloride], the inhibition at 1 µM in assay [1] (setting [4]) amounted to 100%; in assay [2], 52%; in assay [3] it was 10%.

For the compound `OC[C@H]1CNCCO[C@@H]1c1ccc(Cl)c(F)c1` [Example 302, [(6R,7S)-7-(4-chloro-3-fluorophenyl)-1,4-oxazepan-6-yl]methanol monohydrochloride], the inhibition at 1 µM was determined as 98% in assay [1] (setting [4]), 73% in assay [2] and 12% in assay [3].

Take `O=C(CC(F)(F)F)NC[C@@H]1CNCCO[C@H]1c1ccc(Cl)c(F)c1` [Example 314, N-{[(6S,7R)-7-(4-chloro-3-fluorophenyl)-1,4-oxazepan-6-yl]methyl}-3,3,3-trifluoropropanamide monohydrochloride]: the inhibition at 1 µM in assay [1] (setting [4]) came out at 104%; in assay [2] it was 49%; in assay [3], 11%.

For `O=C(CO)NC[C@@H]1CNCCO[C@H]1c1ccc(Cl)c(F)c1` [Example 315, N-{[(6S,7R)-7-(4-chloro-3-fluorophenyl)-1,4-oxazepan-6-yl]methyl}-2-hydroxyacetamide monohydrochloride], the results for the inhibition at 1 µM in assay [1] (setting [4]), in assay [2] and in assay [3] were 105%, 43% and 13%, respectively.

Turning to `O=C(NC[C@@H]1CNCCO[C@H]1c1ccc(Cl)c(F)c1)c1cc(-c2noc(=O)[nH]2)ccc1F` [Example 357, N-{[(6S,7R)-7-(4-chloro-3-fluorophenyl)-1,4-oxazepan-6-yl]methyl}-2-fluoro-5-(5-oxo-4,5-dihydro-1,2,4-oxadiazol-3-yl)benzamide monohydrochloride], the figures for the inhibition at 1 µM in assay [1] (setting [4]), in assay [2] and in assay [3] were 103%, 102% and 19%, respectively.

`O=C(NC[C@@H]1CNCCO[C@H]1c1ccc(Cl)c(F)c1)c1ccc[nH]c1=O` [Example 367, N-{[(6S,7R)-7-(4-chloro-3-fluorophenyl)-1,4-oxazepan-6-yl]methyl}-2-oxo-1,2-dihydropyridine-3-carboxamide monohydrochloride]: the inhibition at 1 µM was 103% in assay [1] (setting [4]), 99% in assay [2] and 57% in assay [3].

As for `O=C1NCCCN1C[C@@H]1CNCCO[C@H]1c1ccc(Cl)c(F)c1` [Example 372, 1-{[(6S,7R)-7-(4-chloro-3-fluorophenyl)-1,4-oxazepan-6-yl]methyl}tetrahydropyrimidin-2(1H)-one monohydrochloride], the inhibition at 1 µM in assay [1] (setting [5]) amounted to 103%; in assay [2] it was 98%; in assay [3], 97%.

In the case of `O=C1CCCCN1C[C@@H]1CNCCO[C@H]1c1ccc(Cl)c(F)c1` [Example 376, 1-{[(6S,7R)-7-(4-chloro-3-fluorophenyl)-1,4-oxazepan-6-yl]methyl}piperidin-2-one monohydrochloride], the inhibition at 1 µM worked out at 102% in assay [1] (setting [4]), 98% in assay [2] and 89% in assay [3].

Consider `O=c1[nH]nc(-c2cccn(C[C@@H]3CNCCO[C@H]3c3ccc(Cl)c(F)c3)c2=O)[nH]1` [Example 379, 1-{[(6S,7R)-7-(4-chloro-3-fluorophenyl)-1,4-oxazepan-6-yl]methyl}-3-(5-oxo-4,5-dihydro-1H-1,2,4-triazol-3-yl)pyridin-2(1H)-one monohydrochloride], for which the values for the inhibition at 1 µM in assay [1] (setting [4]), in assay [2] and in assay [3] were 102%, 95% and 64%, respectively.

As for `Cc1cc(C2OCCNCC2CO)ccc1Cl` (stereo not drawn) [Example 401, [(6R*,7S*)-7-(4-chloro-3-methylphenyl)-1,4-oxazepan-6-yl]methanol monohydrochloride (retention time short)], the inhibition at 1 µM in assay [1] (setting [4]) came to 100%; in assay [2], 75%; in assay [3], 17%.

Consider `Cc1cc(C2OCCNCC2CO)ccc1Cl` (stereo not drawn) [Example 402, [(6R*,7S*)-7-(4-chloro-3-methylphenyl)-1,4-oxazepan-6-yl]methanol monohydrochloride (retention time long)], for which the figures for the “inhibitory rate (%)” value in assay [1] (compound 1 μM), in assay [2] and in assay [3] were 98%, 91% and 19%, respectively.

Values taken from patent publication US20130267494A1, “1,4-OXAZEPANE DERIVATIVES” (priority 2010, published 2013).
